Assay results as given in patent US20240190904A1, “Heteroaryl compounds as inhibitors of RIP2 kinase, composition and application thereof” (Accro Bioscience (HK) Limited, priority 2021, published 2024).
Values after ≈ are worked out from the molar mass of the structure shown.

Columns and labels:
[1] = Metabolic stability test, DLM; format: in vitro ADME; conditions: dog, liver microsomes
Protocol: (§1) • 1. Buffers: • Buffer A: 1.0 L of 0.1 M monobasic Potassium Phosphate buffer containing 1.0 mM EDTA • Buffer B: 1.0 L of 0.1 M Dibasic Potassium Phosphate buffer containing 1.0 mM EDTA • Buffer C: 0.1 M Potassium Phosphate buffer, 1.0 mM EDTA, pH 7.4 by titrating 700 mL of buffer B with buffer A while monitoring with the pH meter. • 2. Reference compounds (Ketanserin) and test compounds spiking solution: • 500 μM spiking solution: add 10 μL of 10 mM DMSO stock solution into 190 μL ACN. • 1.5 μM spiking solution in microsomes (0.75 mg/mL): add 1.5 μL of 500 μM spiking solution and 18.75 μL of 20 mg/mL liver microsomes into 479.75 μL of Buffer C on ice. • 3. Prepare NADPH stock solution (6 mM) by dissolving NADPH into buffer C. • 4. Dispense 30 μL of 1.5 μM spiking solution containing 0.75 mg/mL microsomes solution to the assay plates designated for different time points (0-, 5-, 15-, 30-, 45-min) on ice. • 5. For 0-min time point, add 135 μL of ACN containing IS to the wells of 0-min plate and then add 15 μL of NADPH stock solution (6 mM). • 6. Pre-incubate all other plates at 37° C. for 5 minutes. • 7. Add 15 μL of NADPH stock solution (6 mM) to the plates to start the reaction and timing. • 8. At 5-min, 15-min, 30-min, and 45-min, add 135 μL of ACN containing IS to the wells of corresponding plates, respectively, to stop the reaction. • 9. After quenching, shake the plates at the vibrator (IKA, MTS 2/4) for 10 min (600 rpm/min) and then centrifuge at 5594 g for 15 min (ThermoMultifuge×3R). • 10. Transfer 50 μL of the supernatant from each well into a 96-well sample plate containing 50 μL of ultra pure water (Millipore, ZMQS50F01) for LC/MS analysis.

[2] = Metabolic stability test, RLM; format: in vitro ADME; conditions: rat, liver microsomes
Protocol: as §1

RIP2 kinase = RIP2 kinase (Homo sapiens (Human), UniProt O43353); test: Binding affinity assay (Kd)
RIP2 kinase, sequence (O43353 whole entry): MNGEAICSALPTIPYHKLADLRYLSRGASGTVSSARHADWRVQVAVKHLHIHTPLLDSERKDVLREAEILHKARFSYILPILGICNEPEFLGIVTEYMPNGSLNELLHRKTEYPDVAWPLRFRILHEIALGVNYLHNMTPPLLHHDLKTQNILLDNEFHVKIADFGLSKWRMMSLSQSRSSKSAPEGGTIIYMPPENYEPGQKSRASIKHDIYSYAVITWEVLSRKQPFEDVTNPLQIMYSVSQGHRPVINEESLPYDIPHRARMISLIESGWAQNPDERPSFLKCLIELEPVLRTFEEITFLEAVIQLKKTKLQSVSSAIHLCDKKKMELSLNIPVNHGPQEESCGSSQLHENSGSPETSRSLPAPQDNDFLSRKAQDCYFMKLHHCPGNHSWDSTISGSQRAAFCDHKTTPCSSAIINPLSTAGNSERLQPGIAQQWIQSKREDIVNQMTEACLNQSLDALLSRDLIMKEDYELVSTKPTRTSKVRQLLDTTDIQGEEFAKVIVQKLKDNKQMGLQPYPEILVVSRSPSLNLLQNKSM
Protocol: For most assays, kinase-tagged T7 phage strains were prepared in an E. coli host derived from the BL21 strain. E. coli were grown to log-phase and infected with T7 phage and incubated with shaking at 32° C. until lysis. The lysates were centrifuged and filtered to remove cell debris. The remaining kinases were produced in HEK-293 cells and subsequently tagged with DNA for qPCR detection. Streptavidin coated magnetic beads were treated with biotinylated small molecule ligands for 30 minutes at room temperature to generate affinity resins for kinase assays. The liganded beads were blocked with excess biotin and washed with blocking buffer (SeaBlock (Pierce), 1% BSA, 0.05% Tween 20, 1 mM DTT) to remove unbound ligand and to reduce non-specific binding. Binding reactions were assembled by combining kinases, liganded affinity beads, and test compounds in 1× binding buffer (20% SeaBlock, 0.17×PBS, 0.05% Tween 20, 6 mM DTT). Test compounds were prepared as 111× stocks in 100% DMSO. Kds were determined using an 11-point 3-fold compound dilution series with three DMSO control points. All compounds for Kd measurements are distributed by acoustic transfer (non-contact dispensing) in 100% DMSO. The compounds were then diluted directly into the assays such that the final concentration of DMSO was 0.9%. All reactions performed in polypropylene 384-well plate. Each was a final volume of 0.02 ml. The assay plates were incubated at room temperature with shaking for 1 hour and the affinity beads were washed with wash buffer (1×PBS, 0.05% Tween 20). The beads were then re-suspended in elution buffer (1×PBS, 0.05% Tween 20, 0.5 μM nonbiotinylated affinity ligand) and incubated at room temperature with shaking for 30 minutes. The kinase concentration in the eluates was measured by qPCR.
An 11-point 3-fold serial dilution of each test compound was prepared in 100% DMSO at 100× final test concentration and subsequently diluted to 1× in the assay (final DMSO concentration=1%). Most Kds were determined using a compound top concentration=30,000 nM. If the initial Kd determined was <0.5 nM (the lowest concentration tested), the measurement was repeated with a serial dilution starting at a lower top concentration.
Binding constants (Kds) were calculated with a standard dose-response curve using the Hill equation: […]
The Hill Slope was set to −1.
Curves were fitted using a non-linear least square fit with the Levenberg-Marquardt algorithm.

Caco-2 permeability test = format: in vitro ADME; conditions: human, Caco-2, pH 7.4
Protocol: (§2) • 1. Prewarm HBSS Buffer in 37° C. water bath • 2. Take compounds from −20° C., sonicate for a few minutes (no less than 1 minute) • 3. Solution preparation
(§3) For A-to-B direction: • HBSS buffer with 0.3% DMSO and 5 μM LY: add 150 μL DMSO and 50 μL LY (5 mM) into 50 ml HBSS buffer (pH7.4). • HBSS buffer with 0.1% DMSO and 5 μM LY: add 50 μL DMSO and 50 μL LY (5 mM) into 50 mL HBSS buffer (pH7.4).
(§4) For B-to-A direction: • HBSS buffer with 0.3% DMSO: add 150 μL DMSO into 50 ml HBSS buffer (pH7.4) • HBSS buffer with 0.1% DMSO: add 50 μL DMSO into 50 ml HBSS buffer (pH7.4).
(§5) Receiver Solution Buffer:
(§6) Prepare HBSS buffer with 0.4% DMSO: add 200 μL DMSO into 50 ml HBSS buffer (pH7.4).
(§7) For B-to-A direction: • Prepare HBSS buffer with 0.4% DMSO and 5 uM LY: add 200 μL DMSO and 50 μL LY (5 mM) into 50 ml HBSS buffer (pH7.4).
(§8) Take cell culture plate out of incubator, wash the cell monolayers with HBSS buffer, and then measure TEER values at Rm temperature. • 5. Centrifuge the compound solution (from step 3) at 4000 rpm for 5 min before loading to donor chambers. • 6. Add solution based on the volumes listed in the following table (make sure to take extra 100 uL of donor sample for T0 as Backup).
(§9) • 7. To determine LY concentration in the apical chamber, take 100 μL sample from apical chambers into an opaque plate for LYT0. • 8. Prewarm apical and basolateral plates at 37° C. for about 5 min, then begin transport by placing the apical plate onto basolateral plate. • 9. Keep the plates in incubator at 37° C. for 90 min • 10. Prepare 20× solution
(§10) • 11. Separate the apical plate from the basolateral plate after 90-min incubation. • 12. Take 100 μL samples from basolateral plate to an opaque plate as LYT90. • 13. Measure LY concentrations for LYT0 and LYT90 by Fluorometer (at excitation of 485 nm/emission of 535 nm). • 14. Sample preparation for LC-MS/MS: Donor or receiver samples are diluted by 0.4% DMSO HBSS, then mix with ACN with IS (Osalmid or Imipramine)

Caco-2 = Caco-2 permeability test; format: in vitro ADME; conditions: Caco-2
Protocol: as §2, §3, §4, §5, §6, §7, §8, §9, §10

[3] = Metabolic stability test, HLM; format: in vitro ADME; conditions: human, liver microsomes
Protocol: as §1

[4] = Thermodynamic solubility test; format: physicochemical; conditions: thermodynamic from solid; FaSSIF pH 6.5, thermodynamic
Protocol: • a. Add assay buffer into compound powder to make 4 mg/mL solution. • b. Sample tubes are shaken for 1 hour (1000 rpm), then equilibrated over night at room temperature. • c. Samples are centrifuged (10 min-12000 rpm) to precipitate un-dissolved particles. • d. Supernatants are transferred to new tubes. • e. Concentrations of the supernatants after centrifugation are determined by LCMSMS detection.

In the case of `CP(C)(=O)c1cc2c(Nc3ccc4scnc4c3)ccnc2cc1-c1cnn(C2CCNCC2)c1` [A13], the CLint scaled at 1 μM ([1]; pH 7.4, read-out: Cl (mL/min/kg) DLM) is reported as 17.4 mL/min/kg, the half-life at 1 μM ([1]; pH 7.4, read-out: T1/2 (min) DLM) is reported as 198 min and the CLint scaled at 1 μM ([2]; pH 7.4, read-out: Cl (mL/min/kg) RLM) is reported as 31.6 mL/min/kg. For the same molecule, the half-life at 1 μM ([2]; pH 7.4, read-out: T1/2 (min) RLM) was 78.7 min, the Kd (RIP2 kinase) was 1.4 nM and the Papp A→B at 90 min (Caco-2 permeability test; A-B) was less than 0.14 ×10⁻⁶ cm/s. For the same molecule, the Papp B→A at 90 min (Caco-2 permeability test; B-A) was 0.27 ×10⁻⁶ cm/s, the efflux ratio at 90 min (Caco-2 permeability test; efflux ratio, read-out: Caco-2 Permeability B-A/A-B) was greater than 1.93 and the “permeability (in words)” value (Caco-2) was “low”. The CLint scaled at 1 μM ([3]; pH 7.4, read-out: Cl (mL/min/kg) HLM) was 0.69 mL/min/kg, the half-life at 1 μM ([3]; pH 7.4, read-out: T1/2 (min) HLM) was 2520 min and the solubility [4] was 4.33 mM (≈ 2170 µg/mL).
